Experimental data: publication PMC4354951 (European journal of medicinal chemistry, 2008)
Values joined by “and” are separate entries in the source; they are usually repeats but may differ in a detail not shown here. Identical values can stand only once.

Tests used:
[1] = Stability in human blood serum, Method B; details: Method B; 37 °C, up to 144 h
human NTPDase8 = target: T1, human NTPDase8 (Homo sapiens, UniProt Q5MY95); assay: Hydrolysis by NTPDase8; assay type: biochemical; details: 100 μM substrate; relative to ATP hydrolysis (100%)
T1 sequence (Q5MY95 1-495): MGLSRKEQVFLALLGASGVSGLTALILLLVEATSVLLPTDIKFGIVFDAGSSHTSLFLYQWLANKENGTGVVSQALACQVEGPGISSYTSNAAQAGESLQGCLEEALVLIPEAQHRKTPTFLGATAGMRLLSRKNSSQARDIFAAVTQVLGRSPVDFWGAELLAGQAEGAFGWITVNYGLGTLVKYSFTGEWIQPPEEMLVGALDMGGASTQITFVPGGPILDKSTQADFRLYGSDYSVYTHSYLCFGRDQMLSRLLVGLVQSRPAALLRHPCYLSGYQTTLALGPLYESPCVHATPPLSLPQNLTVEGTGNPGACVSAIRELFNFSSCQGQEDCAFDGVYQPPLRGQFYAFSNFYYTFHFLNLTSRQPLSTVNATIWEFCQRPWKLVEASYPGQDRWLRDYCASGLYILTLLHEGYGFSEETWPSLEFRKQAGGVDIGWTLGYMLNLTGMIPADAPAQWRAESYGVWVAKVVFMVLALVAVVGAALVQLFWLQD

human NPP3 = target: T2, human NPP3 (Homo sapiens, UniProt O14638); assay: Hydrolysis by NPP3; assay type: biochemical; details: 100 μM substrate; relative to pnp-TMP hydrolysis (100%)
T2 sequence (O14638 1-875): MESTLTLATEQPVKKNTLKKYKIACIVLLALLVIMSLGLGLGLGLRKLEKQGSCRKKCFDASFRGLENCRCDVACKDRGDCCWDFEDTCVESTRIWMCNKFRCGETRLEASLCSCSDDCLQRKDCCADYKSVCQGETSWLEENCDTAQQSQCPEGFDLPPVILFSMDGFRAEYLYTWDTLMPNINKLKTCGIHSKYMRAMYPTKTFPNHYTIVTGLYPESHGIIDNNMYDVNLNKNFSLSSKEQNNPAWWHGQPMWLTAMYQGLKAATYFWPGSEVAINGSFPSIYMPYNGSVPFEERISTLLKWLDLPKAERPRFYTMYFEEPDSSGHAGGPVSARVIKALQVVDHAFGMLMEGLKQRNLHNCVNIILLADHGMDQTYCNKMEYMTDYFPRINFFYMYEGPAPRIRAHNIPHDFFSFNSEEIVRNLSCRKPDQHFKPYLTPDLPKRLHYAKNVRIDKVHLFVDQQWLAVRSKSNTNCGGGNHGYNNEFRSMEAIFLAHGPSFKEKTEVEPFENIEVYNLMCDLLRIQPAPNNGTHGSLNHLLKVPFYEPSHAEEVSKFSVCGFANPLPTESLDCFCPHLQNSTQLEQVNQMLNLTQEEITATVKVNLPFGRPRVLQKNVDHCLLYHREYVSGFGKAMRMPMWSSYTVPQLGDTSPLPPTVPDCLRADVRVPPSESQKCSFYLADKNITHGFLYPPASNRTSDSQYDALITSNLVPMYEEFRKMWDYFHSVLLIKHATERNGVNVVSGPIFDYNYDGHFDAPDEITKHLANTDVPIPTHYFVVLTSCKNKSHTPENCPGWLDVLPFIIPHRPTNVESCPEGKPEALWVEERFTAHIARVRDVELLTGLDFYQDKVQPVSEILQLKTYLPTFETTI

rat P2Y6 receptor = rat P2Y6 receptor (Rattus norvegicus, UniProt Q63371); assay: Increase in [Ca2+]i in 1321N1 astrocytoma cells expressing P2Y6 receptor; assay type: cell-based; details: 1321N1 cell transfectants; for EC50: read-out: EC50 of analogue-induced increase in [Ca2+]i, P2Y6
[2] = Chemical hydrolysis under gastric juice-like conditions; assay type: physicochemical

rat P2Y6 receptor, sequence (Q63371 whole entry): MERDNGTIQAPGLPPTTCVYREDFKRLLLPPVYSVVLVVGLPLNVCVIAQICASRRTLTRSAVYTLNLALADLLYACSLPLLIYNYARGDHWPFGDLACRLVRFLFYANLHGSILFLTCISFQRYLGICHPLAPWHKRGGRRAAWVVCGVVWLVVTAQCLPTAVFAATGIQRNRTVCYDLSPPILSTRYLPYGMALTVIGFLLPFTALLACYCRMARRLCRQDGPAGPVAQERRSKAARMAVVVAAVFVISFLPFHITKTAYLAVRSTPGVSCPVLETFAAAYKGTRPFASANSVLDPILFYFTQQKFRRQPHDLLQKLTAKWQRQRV

Structure (SMILES)	resistance to enzymatic hydrolysis in human blood serum [1]	Relative activity of NTPDase8 (human NTPDase8) [%]	Relative activity of NPP3 (human NPP3)	agonist activity at P2Y6R (rat P2Y6 receptor)	EC50 (rat P2Y6 receptor) [µM]	fraction degraded ([2]; 0.2 M HCl/KCl pH 1.4, 37 °C, after 19 h) [%]	t1/2 of acidic hydrolysis ([2]; KCl/HCl buffer pH 1.4, 37 °C, 31P NMR (2) or HPLC-MS (3B, 4B)) [h]
[BH3-][P+](O)(OC[C@H]1O[C@@H](n2cnc3c(N)nc(SC)nc32)[C@H](O)[C@@H]1O)OP(=O)(O)CP(=O)(O)O (single isomer, unassigned) [4A, 2-MeS–adenosine-5′-O-(α-boranotriphosphate)-β,γ-CH2]	completely resistant to enzymatic hydrolysis for at least 6 days	4.0 ± 0.02	10% and 9.9 ± 0.5%	insignificant activities	> 100		
[BH3-][P+](O)(OC[C@H]1O[C@@H](n2cnc3c(N)ncnc32)[C@H](O)[C@@H]1O)OP(=O)(O)CP(=O)(O)O (single isomer, unassigned) [3A, Adenosine-5′-O-(α-boranotriphosphate)-β,γ-CH2]		2.0 ± 0.03	0%	insignificant activities	> 100		
[BH3-][P+](O)(OC[C@H]1O[C@@H](n2cnc3c(N)ncnc32)[C@H](O)[C@@H]1O)OP(=O)(O)CP(=O)(O)O (single isomer, unassigned) [3B, Adenosine-5′-O-(α-boranotriphosphate)-β,γ-CH2]		<1	3.0 ± 0.05%	insignificant activities	> 100	50	19
